Experimental data from patent US9169232B2, “3-(5-methyl-2-oxo-l, 3-dioxol-4-yl) methyloxy-2-trans-[(4-chloro phenyl) cyclohexyl][1,4]naphthaquinone-atovaquone prodrug” (Alkem Laboratories Limited, priority 2011, dated 2015).

Tests used:
[1] = solubility of the prodrug compared with atovaquone; type: physicochemical
Source text: (§1) The Atovaquone prodrug compound of formula (I) of the present invention overcomes the problems associated with poor solubility and variable bioavailability of atovaquone.

[2] = plasma levels of atovaquone after administration of the prodrug; conditions: in vivo
Source text: as §1

[3] = in-vitro and animal study of toxicity; type: in vivo
Source text: as §1

Cc1oc(=O)oc1COC1=C(C2CCC(c3ccc(Cl)cc3)CC2)C(=O)c2ccccc2C1=O (stereo not drawn) [compound of formula (I), 3-(5-methyl-2-oxo-1,3-dioxol-4-yl)methyloxy-2-trans-[(4-chlorophenyl)cyclohexyl][1,4]naphthaquinone]
solubility compared with atovaquone [1]: better solubility than atovaquone | plasma levels of atovaquone compared with levels after administration of atovaquone [2]: non-variable plasma levels of atovaquone | toxicity [3]: toxicity in the acceptable range
